The subject of the series is cardiac cell potassium channels. The experiment in a line: potassium ion-selective optical ion sensor fluorescence assay of electrically paced cardiac myocyte cells (hERG screening). The note with it: 2.0 μM Haloperidol; myocyte cells paced at 1.0 Hz; FIG. 10D in comparison to FIG. 10B. Type of series: cell-based. The source says:
In one particular example, a cell assay system built in accordance with principles of the invention can be used to conduct hERG screening assays. The hERG gene regulates the activity of potassium ion channels in cardiac myocyte cells. In a functioning heart, electrical voltages are generated by modified myocytes in the sinoatrial and atrioventricular nodes (pacemaking nodes). Such voltages are propagated through the heart by the action of various voltage-gated ion channels that alter the voltage gradients across cardiac cell membranes by exchanging sodium, calcium, and potassium ions across the cell membrane. Various agents are known to interfere with the hERG gene, or otherwise block potassium channel operation, resulting in arrhythmia and potentially heart failure. […]
To test for potassium channel interference, cardiac myocyte cells are provided in a monolayer adhered to a biological sample holder. […] As potassium ions are passed into and out of the myocytes by potassium channels, the fluorescence of the potassium selective optical ion sensor varies in a detectable fashion.
FIGS. 10A and 10B are graphs charting the intensity of potassium ion-selective optical ion sensor fluorescence monitoring the activity of myocyte cells in a biological sample holder. […] The graph of FIG. 10A includes normalized raw fluorescence measurements, both observed and filtered. […]
On the technique in general: hERG is a cardiac potassium channel; its block is linked to QT prolongation.

The structures appear in SMILES notation.

As to `O=C(CCCN1CCC(O)(c2ccc(Cl)cc2)CC1)c1ccc(F)cc1` [Haloperidol], the “reduction of intensity of fluorescence oscillations at 1.0 Hz (change of extracellular potassium concentration per beat)” value was determined as 30%.

(Values after patent publication US8859225B2, “Systems and methods of voltage-gated ion channel assays” (The Charles Stark Draper Laboratory, Inc., priority 2006, dated 2014).)
